Residues, ends and D or L forms follow the SMILES beside them. *: point of attachment. Tos = Cc1ccc(S(=O)(=O)*)cc1; OtBu = CC(C)(C)O*
SMILES	melting point [°C]
C[C@@H](C[C@H](N)C(=O)O)C(=O)O	163 to 164
O=S(=O)(Oc1ccc(OCc2ccc3ccccc3n2)cc1C1(c2ccccc2)CC2CCC1C2)C(F)(F)F (centres undefined)	131 to 132
CCOC(=O)c1cc(O[C@@H]2c3c(C)ccc(C)c3C[C@H]2O)c2nc(C)n(C)c2c1 (relative stereo)	184
NS(=O)(=O)c1ccc(-c2[nH]c3ccccc3c2-c2ccc(O)cc2)cc1	241 to 243
COc1ccc2oc(N(C=O)[C@@H](Cc3ccccn3)c3ncc(-c4ccc([N+](=O)[O-])cc4)n3C)cc2c1	210 to 211
COc1cc(OC(=O)c2cc(O)c(O)c(O)c2)ccc1OC(=O)c1cc(O)c(O)c(O)c1	214 to 216
Cc1[nH]cnc1Cc1cccc2c1OC(C)(C)OC2	172 to 178
CCCC[C@H](NC(=O)[C@@H](NC(=O)OCc1ccccc1)c1ccccc1)C(=O)CSCc1ccco1	144 to 146
Cc1cc(C(F)(F)F)c(-c2ccc(C[C@H](NC(=O)c3c(Cl)cccc3Cl)C(=O)O)cc2)c(=O)n1C	238 to 240
COc1ccc2cc(CCCOCCCCCCNCC(O)c3ccc(O)c(NS(C)(=O)=O)c3)ccc2c1 (centres undefined)	87 to 89
CC1(C)CC(=O)C(Cl)(Cl)C(Cl)C1Br (centres undefined)	117
NS(=O)(=O)c1cc(C(=O)O)cc(S)c1Cl	263 to 264
COC(=O)C1=C(C)Nc2ccccc2NC1c1ccccc1[N+](=O)[O-] (centres undefined)	190 to 192
OCc1ccc(-c2ccc3[nH]cc(C[C@H]4CCCN4)c3c2)cc1	65 to 69
CCCCc1oc2ccccc2c1C(=O)Nc1ccc2cc(O)ccc2c1	162 to 164
COc1ccc(COc2cccnc2NC(=N)Nc2ccccc2)cc1	141 to 143
Cn1c([N+](=O)[O-])cnc1C(Cl)Cl	52
OCc1cc2cccc(Nc3cc(-c4ccc(C(F)(F)F)cc4)ncn3)c2[nH]1	221 to 223
COC(=O)Cc1cn(C(c2ccccc2)(c2ccccc2)c2ccccc2)cn1	122 to 125
CCOC(=O)Nc1cc(-n2cc(C(=O)OCC)c(=O)c3c(OCc4ccccc4)c(F)c(F)cc32)c(F)cc1F	130 to 134
COc1c(S(N)(=O)=O)cc(C(=O)O)c2c1OCCO2	247 to 248
Cc1cc(-c2ccc(C(F)(F)F)nc2)cc(-c2cccc(-c3cccc(S(N)(=O)=O)c3)n2)n1	233 to 234
C=CCc1cc(Cc2cnc(N)nc2N)c2ccc(C)nc2c1OC	219 to 222
Cc1nc(C(N)=O)c2n1-c1ccc([N+](=O)[O-])cc1C(c1ccccc1Cl)=NC2	> 300
CCCCCCCCCC(CCCCCCCCC)N1C(=O)c2ccc3c4cccc5cccc(c6ccc(c2c36)C1=O)c54	143 to 144
NS(=O)(=O)c1ccc(NN=Cc2ccc(Cl)cc2)cc1	181 to 182
O=[N+]([O-])c1cccnc1NCc1cccs1	100

SMILES	melting point [°C]
O=C(O)C(CCCc1cccc2ccccc12)c1ccccc1 (centres undefined)	99 to 100
COc1cc(Nc2nccc(-c3cccc(NCCCO)c3)n2)cc(OC)c1OC	92 to 95
CC(C)c1nc(C(O)(C(F)(F)F)C(F)(F)F)[nH]c1-c1ccccc1	80 to 81
COc1cc(NC(=O)OCc2ccccc2)c(Cl)cc1-c1n[nH]c(=O)o1	214
O=C(CS)NCC(=O)NCCS	128 to 130
CC(C)c1cccc(C(C)C)c1NC(=O)NCC(c1ccccc1)c1ccccc1	175 to 176
Cc1cc(N2C(=O)N(CCCCCCCCCSCCCC(F)(F)C(F)(F)F)C(C)(C)C2=O)ccc1NS(N)(=O)=O	102 to 104
O=[N+]([O-])c1cccc2c(C(F)(F)F)cccc12	107 to 108
COc1cc2nc(OC)n3cnnc3c2cc1OC	245 to 250
CC(C)(C)OC(=O)CC(=O)CO[C@H]1NC(=O)[C@@H]1NC(=O)c1ccccc1	142
Nc1n[nH]c2c(F)c(F)ccc12	183
CN(N=C(Cl)c1c(F)cccc1F)S(=O)(=O)c1ccccc1	81.5 to 83
CC[C@H](C)C(=O)c1ccc(-c2ccc(OC)cc2)cc1	119 to 120
CC1CCC2(C(=O)O)CCC3(C)C(=CCC4C5(C)CC(O)C(O)C(C)(CO)C5CCC43C)C2C1C (centres undefined)	300 to 310
Cc1c(-c2ccccc2)oc2c(S)cccc2c1=O	115 to 118
O=C(Nc1cccc(NC(=O)c2ccc(O)cc2)c1)c1ccc(O)cc1	250
CC(C)(C)C(NC(=O)c1ccc(I)cc1)Nc1c(Nc2cccnc2)c(=O)c1=O (centres undefined)	256 to 257
Brc1nc2ncsc2nc1Br	142 to 144
O=C(NCCCCOc1ccc(-n2ccnc2)cc1)c1ccccc1	117 to 118
CS(=O)(=O)c1cc(C(=O)NC(=N)N)c(NCc2ccco2)cc1Cl	96 to 102
CCC[C@H](CO)Nc1nc(-c2ccc(Br)cc2)cs1	61 to 63
Cc1nc(CC2OC(CO)C(O)C2O)n2nc(N(C)C)ccc12 (centres undefined)	231 to 232
CCOC(=O)[C@H](CSCc1ccccc1)NC(=O)C(C)(C)NC(=O)[C@@H](SC(C)=O)C(C)C	69 to 71
NS(=O)(=O)c1ccc(-c2c(-c3ccccc3)noc2COCC(F)(F)C(F)(F)CO[N+](=O)[O-])cc1	46
Clc1ccc2nc3c(nc2c1)-c1cccc2cccc-3c12	224 to 225
Nc1ccc2[nH]cc(C3=CCN4CCCC4C3)c2c1 (centres undefined)	208 to 210

Continued, values first:

melting point [°C]	SMILES
153 to 155	CC(C)CNC(=O)c1ccc(C(=O)N2CCC[C@@H]3CCCC[C@H]32)cc1N (relative stereo)
206 to 208	O=C(CN1CCC(Oc2ccccc2)CC1)Nc1ccc2c(c1)OCC(=O)N2
139	CCOC(=O)N1CCN(c2ccc(-n3cnn(C(CC)C(=O)c4ccc(Cl)cc4)c3=O)cn2)CC1 (centres undefined)
95 to 96	O=C(c1ccccc1)N1CC2CSCC(C2)C1
107 to 109	CC(C)n1nc(-c2ccc(=O)[nH]c2-c2ccccc2)ccc1=O
170 to 171	NC(=O)c1cc(-c2ccc(F)cc2)sc1N
107 to 108	c1ccc(C2(Oc3cnccn3)CCNCC2)cc1
254 to 256	COc1ccc(C(=O)Oc2ccc(C(=O)O)c(F)c2)cc1C12CC3CC(CC(C3)C1)C2
169 to 171	COc1ccc(C2=NN(CCCCOc3ccc(C(=O)O)cc3)C(=O)[C@H]3CC=CC[C@@H]23)cc1Cl (relative stereo)
103 to 104	CC(Br)C(=C(C#N)C#N)c1ccccc1 (centres undefined)
115 to 120	COC(=O)c1cccc(-n2cncn2)c1
149 to 152	COc1cc2c(cc1-c1ccccc1)CCN=C2C1(c2ccccc2Cl)CCC1
136 to 138	COc1cccc(C=CC(=O)C(=O)O)c1OC
37 to 39	C=CCc1c(Cl)cc2c(c1O)CCC2
169 to 171	CC(C)CCN1C(=O)C2(COc3cc4c(cc32)OCCO4)c2c1ccc1ncsc21 (centres undefined)
113 to 115	Cc1nc2c(-c3ccc(N4CCN(C)CC4)cc3)cnn2c(N)c1-c1cccc(Cl)c1
265 to 266	O=C(NC1CCCNC1)c1ccc2[nH]ncc2c1 (centres undefined)
143 to 145	COc1c(O)c([N+](=O)[O-])cc(C(=O)c2ccccc2)c1Cl
144 to 146	CN1CC(CCN2CCN(c3ccccc3)CC2)c2nc3ccccc3n2C1=O (centres undefined)
172	Cc1cccc(-c2sc(N)nc2-c2ccnc(-c3ccc(OCC(=O)N4CCOCC4)cc3)c2)n1
192 to 194	C=CCN(CC=C)c1nc(NC(=O)c2ccc(Cl)cc2)n2oc(=O)nc2n1
120 to 122	CCC(Oc1ccccc1)C(=O)OC1CC(O)C=C2C=CC(C)C(CCC3CC(O)CC(=O)O3)C21 (mixture of isomers)
199 to 200	CN1CCN(c2cccc3c2C[C@H](NC(=O)c2ccc(OS(C)(=O)=O)cc2)CC3)CC1

melting point [°C]	SMILES
125 to 126	CCC(=O)NC1=NN(c2ccc(F)cc2)C(C)C1 (centres undefined)
169 to 170	N#Cc1cc(S(=O)c2ccccc2)[nH]c1-c1ccc(Cl)cc1 (centres undefined)
275 to 277	CSCCn1nc(O)c2[nH]c3cc(Cl)ccc3c(=O)c2c1=O
154 to 155	CC(C)Oc1c(C(N)=O)oc2ccc(Cl)cc12
87 to 95	COC[C@H]1CN(C2=Nc3ccccc3Nc3sc(C)cc32)CCN1
173	CS(=O)(=O)c1ccc(-c2cc(C(=O)c3ccccc3)sc2N2CCOCC2)cc1
127 to 129	COC(=O)c1sc2ccc(OC)cc2c1OC(C)C#N (centres undefined)
73 to 74	OCC1=NOC(c2ccccc2)C1 (centres undefined)
66	CC(C)NCC(O)COc1ccc(CCOC2CCCC2)cc1 (centres undefined)
173	CC(C)(C)Cc1nc2cc(S(=O)(=O)c3ccccc3)ccc2n1CC1CC1
217	Cc1cc(-c2cc(C(F)(F)F)n3cnc(C#N)c3n2)ccc1C(F)(F)F
136 to 140	O=C1CCc2cccc3c2N1C(=O)CC3
120 to 122	CN1CC=C(c2cccc(C(F)(F)F)c2)n2ncc(C#N)c21
153 to 155	Cc1ccc(S(=O)(=O)N2CCC[C@H]2C(=O)N[C@@H](CC(=O)OC(C)(C)C)C(=O)O)cc1 (Tos-Pro-Asp(OtBu)-OH)
217 to 219	COc1ccc2c(c1)C(=O)C(=Cc1c[nH]c3ccccc13)CO2
192	Nc1nc(Cl)cc(Oc2ccc3[nH]ccc3c2)n1
73 to 76	N#CCN[C@H]1CCc2c(F)cc(F)cc2C1
121	N#Cc1ccc(C=O)c(N2CCCC2)c1
177 to 179	Cc1ccc(N2C(=O)C3=C(CCCC3)C2=O)c2c1OC(CO)C2 (centres undefined)
246	NC(=O)Nc1ccc2c(c1)N1CCCN=C1S2
146 to 148	CN(C)C(=O)c1cc2c(OC[C@@H](O)CN3CCC(c4ccc5ccccc5c4)CC3)cccc2n1C
93 to 95	O=C(CCCN1CCCCC1)c1ccc2sc3ccc(C(=O)CCCN4CCCCC4)cc3c2c1
168 to 170	O=C(c1ccccc1CN1C(=O)C2(COc3cc4c(cc32)CCO4)c2ccccc21)N1CCCCC1 (centres undefined)
